The text below walks through data of EP3009422A1, “Photo-switchable sulfonylureas and their uses” (Ludwig-Maximilians-Universität München, priority 2014, dated 2016).

As a reminder, the EC50 is the concentration giving half of the maximal effect. For orientation: IC50 means the concentration that inhibits the measured activity by half. High values mean a need for much substance, low ones inhibition by little substance.

In one test the test system is human islets. As to the kind of experiment: Calcium imaging in isolated human islets of Langerhans. The format is cell-based. The following applies: JB253-treated human islets, 440 nm and 491 nm. On the procedure: Human islets were isolated from deceased heart-beating donors (n = 3) at transplantation facilities in Pisa and Edmonton with the relevant national and local ethical permissions, including consent from next of kin where required, and cultured in RPMI supplemented with 5.5 mM D-glucose, 10% foetal calf serum (FCS), 100 U penicillin, 100 µg streptomycin and 0.25/µl fungizone (37 °C, 5% CO2). All studies involving human tissue were approved by the National Research Ethics Committee (NRES) London (Fulham), REC # 07/H0711/114.
Islets were loaded for 30-45 min in fluo2-AM (10 µM) or for 2-5 min with X-Rhod 1 (5 µM) diluted with a mixture of DMSO (0.01%, wt/vol) and pluronic acid (0.001%, wt/vol; all Invitrogen) in a bicarbonate buffer containing in mM: 120 NaCl, 4.8 KCl, 1.25 NaH2PO4, 24 NaHCO3, 2.5 CaCl2, 1.2 MgCl2 and 5 D-glucose. fMCI was performed using a Zeiss Axiovert M200 fitted with a Nipkow spinning-disk head (Yokogawa CSU-10) and a 10x/0.3NA objective adjusted for chromatic aberration (EC Plan-Neofluar, Zeiss). Pulsed excitation (frequency = 0.5 Hz; exposure = 263 ms) was delivered at 491 nm and emitted signals recorded at 500-550 nm with a back-illuminated 16-bit EM-CCD camera (ImageEM 9100-13; Hamamatsu). During recording, islets were maintained at 35-36 °C in the presence of 50 µM JB253 using a custom-manufactured perfusion and heating system (Digital Pixel). Drugs were introduced through the perfusion system at the indicated time points and concentrations. Violet light was delivered by a 405 ± 5 nm laser coupled to the side port of the microscope and configured to fill the back of the objective with light using an Optospot (Cairn Research). Blue light was delivered using 440 ± 5 nm and 491 ± 5 nm diode lasers controlled by a laser merge module (Spectral Applied Research) to allow simultaneous exposure and acquisition. […] Signals were normalized using F/Fmin where F is fluorescence at a given timepoint and Fmin is minimum fluorescence.

A further test deals with mouse islets. In words: Calcium imaging (fMCI) of beta cell activity in intact mouse islets. The format is cell-based. The following applies: for effect of high doses on the effects of JB253 on cytosolic Ca^2+: JB253-treated mouse islets, 405 nm, n = 4-6 recordings; for EC50: mouse islets, concentration-response, read-out: EC50 for cytosolic Ca^2+ rises. The procedure: Male and female CD1 and C57BL6 mice (8-20 weeks) were maintained in a specific pathogen-free facility under a 12h light-dark cycle with ad libitum access to water and food. Animals were euthanized using a schedule-1 method and pancreatic islets isolated by collagenase digestion. All procedures were regulated by the Home Office according to the Animals (Scientific Procedures) Act 1986 of the United Kingdom (PPL 70/7349), and study approval granted by the Animal Welfare and Ethical Review Body (AWERB) of Imperial College. No randomization was used for animal experimentation, since mice were only used as tissue donors.
Islets were loaded for 30-45 min in fluo2-AM (10 µM) or for 2-5 min with X-Rhod 1 (5 µM) diluted with a mixture of DMSO (0.01%, wt/vol) and pluronic acid (0.001%, wt/vol; all Invitrogen) in a bicarbonate buffer containing in mM: 120 NaCl, 4.8 KCl, 1.25 NaH2PO4, 24 NaHCO3, 2.5 CaCl2, 1.2 MgCl2 and 5 D-glucose. fMCI was performed using a Zeiss Axiovert M200 fitted with a Nipkow spinning-disk head (Yokogawa CSU-10) and a 10x/0.3NA objective adjusted for chromatic aberration (EC Plan-Neofluar, Zeiss). Pulsed excitation (frequency = 0.5 Hz; exposure = 263 ms) was delivered at 491 nm and emitted signals recorded at 500-550 nm with a back-illuminated 16-bit EM-CCD camera (ImageEM 9100-13; Hamamatsu). During recording, islets were maintained at 35-36 °C in the presence of 50 µM JB253 using a custom-manufactured perfusion and heating system (Digital Pixel). Drugs were introduced through the perfusion system at the indicated time points and concentrations. Violet light was delivered by a 405 ± 5 nm laser coupled to the side port of the microscope and configured to fill the back of the objective with light using an Optospot (Cairn Research). Blue light was delivered using 440 ± 5 nm and 491 ± 5 nm diode lasers controlled by a laser merge module (Spectral Applied Research) to allow simultaneous exposure and acquisition. For single islet targeting, a 473 ± 5 nm laser was coupled to a custom-manufactured dichroic array (Cairn Research), allowing user-directed steering of a collimated laser spot across the field of view. Signals were normalized using F/Fmin where F is fluorescence at a given timepoint and Fmin is minimum fluorescence.
(§1) Data distribution was determined using the D'Agostino omnibus test. Non-multifactorial pairwise comparisons were made using either the Student's t-test. Interactions between multiple treatments were assessed using one-way ANOVA followed by pairwise comparisons using Bonferroni's post-hoc test. Effect sizes in islets/cells are usually sufficiently large that multiple animals/independent replication is a more important determinant of power in studies requiring statistical comparison. Non-linear regression was used to calculate the EC50 of normalized and log-transformed concentration-response curves. For [3H]-glibenclamide displacement assays, data points were fitted to the Hill equation before calculation of the halfmax value. In all cases, analysis was performed using Graphpad Prism (Graphpad Software) and IgorPro, and experimental numbers reported as independent biological replicates. No animals or data were excluded from the analysis and results were considered significant at P<0.05.

Another test relates to isolated murine islets. In words: Insulin secretion from isolated islets (static incubation, radioimmunoassay). In kind it is cell-based, mouse. The following applies: diazoxide 250 µM, JB253 50 µM, illumination. The procedure: Insulin secretion was measured from 6 islets per well, incubated at 37 °C for 30 min in 0.5 ml of Krebs-HEPES-bicarbonate (KHB) solution (containing in mM: 130 NaCl, 3.6 KCl, 1.5 CaCl2, 0.5 MgSO4, 0.5 NaH2PO4, 2 NaHCO3, 10 HEPES, and 0.1 % (wt/vol) BSA, pH 7.4) containing the indicated glucose concentration and tolbutamide (100 µM), glimeperide (50 µM), diazoxide (250 µM) and JB253 (50 µM). Illumination (λ = 405 ± 20 nm and 485 ± 6 nm) was performed using a Fluostar Optima microplate reader (BMG Labtech) set to deliver 30 s of light every 2 min to the designated wells. Insulin concentrations were determined in duplicate using specific radioimmunoassay (EMD Millipore).

The target of the next test is T1, SUR1 (Rattus norvegicus, UniProt Q09429).
T1 construct: expressed in transfected cells; host or cells: HEK293t
T1 sequence (Q09429 whole entry): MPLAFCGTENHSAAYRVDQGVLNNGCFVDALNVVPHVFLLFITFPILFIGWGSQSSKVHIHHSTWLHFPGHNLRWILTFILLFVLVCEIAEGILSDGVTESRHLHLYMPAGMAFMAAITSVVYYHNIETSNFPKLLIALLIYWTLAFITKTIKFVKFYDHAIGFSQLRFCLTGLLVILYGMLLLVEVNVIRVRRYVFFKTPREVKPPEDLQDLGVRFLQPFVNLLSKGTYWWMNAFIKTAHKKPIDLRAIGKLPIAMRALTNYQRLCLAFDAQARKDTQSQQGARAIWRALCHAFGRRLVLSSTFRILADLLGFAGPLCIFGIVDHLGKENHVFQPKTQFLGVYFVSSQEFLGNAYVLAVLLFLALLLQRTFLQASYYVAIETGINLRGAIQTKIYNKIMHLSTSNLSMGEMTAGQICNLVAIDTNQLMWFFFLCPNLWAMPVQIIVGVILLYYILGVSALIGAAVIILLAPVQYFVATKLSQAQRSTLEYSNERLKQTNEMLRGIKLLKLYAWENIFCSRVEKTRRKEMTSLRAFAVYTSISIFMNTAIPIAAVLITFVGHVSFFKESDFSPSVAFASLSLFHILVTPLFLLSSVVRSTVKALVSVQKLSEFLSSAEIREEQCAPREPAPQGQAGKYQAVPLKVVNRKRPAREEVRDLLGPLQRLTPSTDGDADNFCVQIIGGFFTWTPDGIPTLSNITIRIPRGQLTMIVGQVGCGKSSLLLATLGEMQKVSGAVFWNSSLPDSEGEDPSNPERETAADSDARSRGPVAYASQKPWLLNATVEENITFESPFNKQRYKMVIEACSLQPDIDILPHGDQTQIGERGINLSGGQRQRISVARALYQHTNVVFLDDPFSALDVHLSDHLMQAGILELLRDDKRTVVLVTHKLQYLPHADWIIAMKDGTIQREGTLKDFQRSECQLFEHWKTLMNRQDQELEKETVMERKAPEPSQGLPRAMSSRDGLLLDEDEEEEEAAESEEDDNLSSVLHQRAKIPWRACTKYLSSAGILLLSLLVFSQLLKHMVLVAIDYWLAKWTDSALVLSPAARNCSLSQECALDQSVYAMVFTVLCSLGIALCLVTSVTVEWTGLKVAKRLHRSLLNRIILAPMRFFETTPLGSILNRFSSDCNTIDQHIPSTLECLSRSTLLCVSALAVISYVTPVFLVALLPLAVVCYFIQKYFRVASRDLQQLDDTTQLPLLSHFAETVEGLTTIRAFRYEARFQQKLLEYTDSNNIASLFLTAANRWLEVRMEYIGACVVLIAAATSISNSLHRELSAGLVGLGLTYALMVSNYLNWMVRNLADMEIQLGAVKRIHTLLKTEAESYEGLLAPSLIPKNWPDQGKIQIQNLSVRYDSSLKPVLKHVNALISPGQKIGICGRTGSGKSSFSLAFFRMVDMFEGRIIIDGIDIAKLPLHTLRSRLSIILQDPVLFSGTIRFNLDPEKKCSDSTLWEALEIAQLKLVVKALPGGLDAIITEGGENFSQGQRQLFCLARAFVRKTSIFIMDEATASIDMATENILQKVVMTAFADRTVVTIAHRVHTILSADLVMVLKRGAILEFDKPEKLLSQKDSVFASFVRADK
As to the kind of experiment: [3H]-glibenclamide displacement radioassay in SUR1-expressing HEK293t cells. The following applies: displacement of [3H]-glibenclamide, SUR1-expressing HEK293t cells, n = 3. The format is binding. The procedure: SUR1-expressing HEK293t cells were harvested and washed twice in assaying buffer containing in mM: 119 NaCl, 4.7 KCl, […], 1.2 KH2PO4, 1.2 MgSO4, 5 NaHCO3, and 20 HEPES, pH 7.4. In a 96-well plate, ∼200,000 cells/well were incubated for 50 min with [3H]-glibenclamide (PerkinElmer) and different concentrations of glimepiride (Sigma-Aldrich) or JB253. Incubation was terminated by rapid filtration through Whatman GF/C filters by means of a Brandel MWXR-96 TI harvester and filters were washed 3 times with ice-cold assay buffer. Radioactivity was counted 6 h after cell and filter lysis in 200 µL Rotiszint EcoPlus (Roth) using a Packard microbeta scintillation counter (PerkinElmer).
as §1
(Displacement assays read how much labelled ligand stays bound in the presence of the test substance.)

For a further test, the system named is Epac2A. In words: Epac2-camps FRET imaging in HEK293t cells. In kind it is cell-based. The following applies: HEK293t cells expressing full length Epac2-camps; JB253 as cis-JB253 (excitation 440 nm). The procedure:
For EPAC2 imaging, HEK293t were transfected with the full length construct for […] containing the cAMP and sulfonylurea binding domains (obtained from Prof. […] Excitation was delivered at 440 nm and emitted signals captured using […] filters. FRET was calculated as the ratio of Cerulean (CFP):Venus (YFP) fluorescence. Signals were normalized using R/R0 where R is the ratio at a given timepoint and R0 is the minimum ratio.

Consider `CC1=NS(=O)(=O)c2cc(Cl)ccc2N1` [diazoxide, reference compound], for which, in the test on human islets, the “effect on JB253 effects on intracellular Ca^2+” value was “reversed”. Moreover, in the test on mouse islets, the “effect of high doses on the effects of JB253 on cytosolic Ca^2+” value is reported as “suppress”. Besides, in the test on isolated murine islets, the “effect on light-induced insulin secretion of JB253-treated islets” value was “partially reversed”.

Consider `CCN(CC)c1ccc(/N=N\c2ccc(S(=O)(=O)NC(=O)NC3CCCCC3)cc2)cc1` [cis-JB253], for which the EC50 in the test on mouse islets was 675 nM. Also, the IC50 on SUR1 (cis-state may relax thermally during washing) worked out at 14.8 µM.

For `CCCCNC(=O)NS(=O)(=O)c1ccc(C)cc1` [tolbutamide, reference compound], in the test on human islets, the “effect on JB253 effects on intracellular Ca^2+” value is “mimicked”. The “effect of high doses on the effects of JB253 on cytosolic Ca^2+” value in the test with mouse islets is on record as “augment”.

For `CCC1=C(C)CN(C(=O)NCCc2ccc(S(=O)(=O)NC(=O)N[C@H]3CC[C@H](C)CC3)cc2)C1=O` [glimepiride, reference compound], the EC50 with mouse islets stood at 399 nM. Also, the IC50 at SUR1 was 0.0083 µM. The “ΔR/R0 (decrease in FRET)” value with Epac2A turned out to be 0.052 AU.
